Experimental data taken from paper PMC12664080, “Tetrazole-containing naphthalene bis-sulfonamide Keap1-Nrf2 interaction inhibitors with unexpected binding modes” (Redox Biology, 2025).
“And” between values parts separate entries of the source, which are not always exact repeats. Equal entries are not always repeated. Where two headings read alike, the source gives them in different places.

Columns and labels:
Keap1 Kelch domain [1] = target: T1, Keap1 Kelch domain (Homo sapiens, UniProt Q14145); experiment: Differential scanning fluorimetry (DSF) thermal shift assay; format: binding; settings: 10 μM compound; Keap1 vehicle control Ti = 61.3 ± 0.3 °C
T1 construct: made in house
Experimental: The DSF assays were carried out according to the previously described method. Solutions of the Keap1 Kelch domain protein (5 μM final concentration) and the small molecule inhibitor (10 μM final concentration) were prepared in DPBS at pH 7.4 (10 % final DMSO concentration, 20 μL final volume) in an Eppendorf tube. The solution was centrifuged briefly (1500 rpm, 60 s) to remove any particulates and mix the samples, followed by a 30 min incubation at RT. The samples were loaded into Tycho NT.6 capillaries (Nanotemper) in triplicate and positioned in the […] instrument. […] The fluorescence ratio vs temperature was plotted and the inflection temperature (Ti) of the profile was recorded. Changes in inflection (ΔTi) for the inhibitors were calculated by subtracting the mean Ti of the Keap1 sample plus vehicle from the mean Keap1 plus binder value (n = 3).

Nrf2 = Nrf2 luciferase reporter assay (MCF7 ARE-luciferase reporter cell line); format: cell-based; settings: Homo sapiens, MCF7 cells
Experimental: The induction of luciferase activity in the stably transfected MCF7 ARE-luciferase reporter cell line was measured using an adaptation of a published procedure. […] The cells were treated with compound or vehicle control (1 % final DMSO concentration) and incubated for a further 24 h. The culture medium was aspirated and the cells were washed with 100 μL per well PBS. The cells were lysed using 75 μL per well lysis buffer (0.2 % Triton X-100 in 25 mM Tris pH 7.5) under gentle agitation at rt for 30 min. The samples were transferred to 500 μL Eppendorf tubes and centrifuged at 10000 g for 5 min at 4 °C. 50 μL of supernatant from each sample were transferred to a new 96 well plate. 50 uL of working reagent (100 mM Tris pH 8.0, 5 mM MgCl2, 100 μM coenzyme A, 80 μM luciferin, and 5 mM ATP) were added to each well and the luciferase activity was measured.

Keap1 Kelch domain [2] = target: T1, Keap1 Kelch domain; experiment: Isothermal titration calorimetry (ITC); format: binding
Experimental: The measurements were performed as described previously. The small molecule inhibitor at 500 μM was titrated over 30 injections against 50 μM protein in buffer containing 25 mM HEPES (pH 7.4), 200 mM NaCl and 5 % DMSO. ITC experiments were performed using a MicroCal PEAQ-ITC instrument (Malvern Instruments, UK) at 25 °C with a stirring speed of 750 rpm. The first injection volume was of 0.3 μL followed by 29 injections of 1.3 μL and a gap of 120 s between each injection. Data analyses were performed as previously described. Each small molecule ITC measurement was performed in duplicate and resultant values obtained were averaged after independent analysis.

Keap1-mCherry = experiment: Keap1-Glow Cellular Thermal Shift Assay (CETSA), U2OS cell lysates; format: cell-based; settings: 10 μM, 1 h at 37 °C
Experimental: U2OS FRT/TO cells with doxycycline-inducible expression of Keap1-mCherry or mCherry were treated with 0.5 μg/mL of doxycycline for 72–96 h to induce the expression of the fluorescent proteins. Lysates of U2OS cells with doxycycline-inducible expression of Keap1-mCherry or mCherry were prepared by lysing in DPBS with EDTA-free protease inhibitor cocktail (PIC) using at least 22 strokes of the Dounce homogenizer. The lysates were cleared by centrifugation at 9600×g for 5 min at 22 °C and incubated with 10 μM compound 25 or vehicle (0.4 % DMSO) for 1 h at 37 °C [46]. The lysates were then heated for 3 min at the indicated range of temperatures (39 °C–72 °C, with 3 °C increments) using a thermal cycler, and the aggregated material was removed by a high-speed centrifugation at 17,000×g at 4 °C for 40 min or 15,000×g at 4 °C for 1 h. The soluble fractions were transferred to 96-well white opaque plates, and the fluorescence (580 nm excitation wavelength (20 nm excitation bandwidth), 635 nm emission wavelength (35 nm emission bandwidth)) was measured using a plate reader (TECAN Spark 10 M).

[3] = EXSY NMR of cis/trans rotamer exchange; format: physicochemical
Text: A series of pseudo-3D EXSY spectra were then acquired for compound 25 in D2O at temperatures of 280, 290, 300, 310 and 320 K (700 MHz, pulse sequence adapted from noesygpphpr and available on request, 1 s recycle delay, 13 mixing times from 5 to 1000 ms, acquisition times of 367 ms and 52 ms and spectra widths of 16 ppm and 3.5 ppm for direct and indirect dimensions respectively). Spectra were processed with linear prediction and cosine-squared window functions. For each temperature, methoxy singlet resonances were selected for analysis, and the intensities of the diagonal ( IAA and IBB ) and cross peaks ( IAB and IBA ) were fitted to Eq. (1) as a function of the mixing time, T, to determine the exchange rates kAB and kBA [41]. The ‘A’ state was defined to be the more shielded signal. Reported uncertainties were obtained from the non-linear fitting procedure.(1) (IAAIABIBAIBB)(T)=exp[(−R1,A−kABkBAkAB−R1,B−kBA)T]·(IA000IB0)
Exchange rates kAB and kBA were used to determine the relative populations pA=kBA/kAB+kBA and pB=kAB/kAB+kBA and were fitted to van't Hoff and Eyring equations (with unit transmission coefficient) to estimate the enthalpy and entropy changes and enthalpy and entropy of activation.

Keap1 = Keap1 (Homo sapiens, UniProt Q14145); experiment: Microscale thermophoresis (MST)
Experimental: Keap1 was labelled using the Protein Labelling Kit RED-NHS 2nd Generation (NanoTemper, München, Germany). Keap1 was diluted to 2 μM in RED-NHS Labelling Buffer. 10 μg of RED-NHS 2nd Generation labelling dye was freshly dissolved in 25 μL of DMSO to yield a concentration of 600 μM, then further diluted in RED-NHS Labelling Buffer to 300 μM. A volume of 20 μL of the 300 μM labelling dye was thoroughly mixed with 180 μL of 2 μM Keap1 and incubated at rt in a dark environment for 3 h. […] The sample was transferred to the centre of the resin bed in the B-column. 550 μL of Keap1 MST buffer was pipetted into the B-column and allowed to enter completely, followed by elution of the sample with 450 μL of Keap1 MST buffer and the flow-through was collected into a 1.5 mL Eppendorf tube. The collected sample was centrifuged at 15,000×g for 10 min at 4 °C to remove aggregates. Protein concentration in the collected sample was determined using the NanoDrop spectrophotometer. The sample was then tested in MST pre-test to evaluate the labelling quality.
Labelled Keap1 was diluted to 20 nM in Keap1 MST buffer prior to the reaction setup. […] An equal volume of 20 nM Keap1 was thoroughly mixed with each diluted sample and incubated for 30 min at rt. […] An equal volume of 2 nM Keap1 was mixed with each diluted sample and incubated at rt for 30 min. Incubated samples were loaded into Monolith NT.115 standard capillaries and measured using the Monolith NT.115^Pico instrument in triplicate. Parameters and measurements were set and controlled by the MO.Control software and collected datasets were analysed using the MO.Affinity Analysis software.

[4] = 1D 1H NMR lineshape analysis of cis/trans rotamer exchange
Experimental: Exchange was quantified using a two-site exchange model [40] implemented in Julia, where resonances were fitted to calculate chemical shifts of the two states and the exchange rates kAB and kBA between them. […] Reported uncertainties were determined from the standard errors of the fits.

[5] = D2O PBS buffer, pH* ~7.4, lineshape

T1 sequence (Q14145 322-609): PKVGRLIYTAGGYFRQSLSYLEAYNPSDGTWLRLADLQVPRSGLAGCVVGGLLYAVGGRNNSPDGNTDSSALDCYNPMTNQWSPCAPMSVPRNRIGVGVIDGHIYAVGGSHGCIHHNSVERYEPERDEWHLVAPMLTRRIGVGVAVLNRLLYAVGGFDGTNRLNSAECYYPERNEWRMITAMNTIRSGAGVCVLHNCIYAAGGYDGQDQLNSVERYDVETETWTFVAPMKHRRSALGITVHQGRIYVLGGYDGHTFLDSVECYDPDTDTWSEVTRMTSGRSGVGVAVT
Sequence of Keap1 (Q14145 322-609): as above

SMILES: COc1ccc(S(=O)(=O)N(CC(=O)O)c2ccc(N(Cc3nnn[nH]3)S(=O)(=O)c3ccc(OC)cc3)c3ccccc23)cc1 [Compound 25, N-(4-((N-((1H-tetrazol-5-yl)methyl)-4-methoxyphenyl)sulfonamido)naphthalen-1-yl)-N-((4-methoxyphenyl)sulfonyl)glycine]
- DSF ΔTi (Keap1 Kelch domain [1]): 19.4 ± 0.4 °C
- fold induction at 10 µM (Nrf2; 10 μM, 24 h): 1.48
- fold induction at 100 µM (Nrf2; 100 μM (highest test concentration), read-out: peak fold induction of luciferase activity): 5.66
- Kd (Keap1 Kelch domain [2]; 25 °C, read-out: ITC Kd): < 1 nM
- Kd (Keap1 Kelch domain [2]; from ITC and MST data, read-out: Kd value for Keap1 Kelch domain (overall, lower limit of detection)): ≤ 1 nM
- Target engagement in the cellular environment (CETSA) (Keap1-mCherry): confirmed
- kA→B ([3]; D2O PBS buffer, 280 K, EXSY): 0.1633 ± 0.0072 s⁻¹
- kA→B ([3]; D2O PBS buffer, 290 K, EXSY): 0.541 ± 0.013 s⁻¹
- kA→B ([3]; D2O PBS buffer, 300 K, EXSY): 1.432 s⁻¹ and 1.432 ± 0.033 s⁻¹
- kA→B ([3]; D2O PBS buffer, 310 K, EXSY): 3.26 ± 0.11 s⁻¹
- kA→B ([3]; D2O PBS buffer, 320 K, EXSY): 8.78 ± 0.39 s⁻¹
- ΔHAB ([3]; D2O PBS buffer, pH* ~7.4, EXSY): 1.43 ± 0.311 kcal/mol
- ΔH^‡AB ([3]; D2O PBS buffer, pH* ~7.4, EXSY): 16.6 ± 0.22 kcal/mol
- ΔSAB ([3]; D2O PBS buffer, pH* ~7.4, EXSY): 16.8 ± 4.4 J/(K·mol)
- ΔS^‡AB ([3]; D2O PBS buffer, pH* ~7.4, EXSY): -11.3 ± 3 J/(K·mol)
- ΔS^‡AB ([3]; D2O, EXSY, Eyring (Fig. 4D)): −11.3 ± 3.0 J K^−1 mol^−1
- ΔSAB ([3]; D2O, EXSY, van 't Hoff (Fig. 4C)): 16.8 ± 4.4 J K^−1 mol^−1
- Kd (Keap1; 1 nM Keap1): 2.1 ± 0.5 nM
- Kd (Keap1; 10 nM Keap1): 24.3 ± 4.7 nM
- Occupancy of the more shielded state (A) ([4]; D2O PBS buffer (pH* ~7.4), 300 K): 0.606 ±0.003
- Occupancy of the more shielded state (A) ([4]; D2O PBS buffer (pH* ~7.4), 310 K): 0.586 ±0.001
- Occupancy of the more shielded state (A) ([4]; D2O PBS buffer (pH* ~7.4), 320 K): 0.567 ±0.001
- kA→B ([4]; D2O PBS buffer, 300 K, lineshape): 1.432 s^-1 and 1.432 ±0.015^c s^-1
- kA→B ([4]; D2O PBS buffer, 310 K, lineshape): 3.488 ±0.014^c s^-1
- kA→B ([4]; D2O PBS buffer, 320 K, lineshape): 8.912 ±0.024^c s^-1
- ΔHAB [4, 5]: 1.561 ± 0.00526 kcal/mol
- ΔH^‡AB [4, 5]: 17.4 ± 0.55 kcal/mol
- ΔSAB [4, 5]: 18.19 ± 0.07
- ΔS^‡AB [4, 5]: 0.65 ± 7.2
- Occupancy of the more shielded state (A) ([4]; DMSO, 300 K): 0.486 ±0.003
- kA→B ([4]; DMSO, 300 K, lineshape): 3.059 ± 0.029 s⁻¹
- Occupancy of the more shielded state (A) ([4]; DMSO, 310 K): 0.491 ±0.001
- kA→B ([4]; DMSO, 310 K, lineshape): 3.982 ± 0.007 s⁻¹
- Occupancy of the more shielded state (A) ([4]; DMSO, 320 K): 0.496 ±0.0005
- kA→B ([4]; DMSO, 320 K, lineshape): 8.749 ± 0.012 s⁻¹
- ΔH^‡AB ([4]; DMSO, lineshape, Eyring): 11.5 ± 3.11 kcal/mol
- ΔS^‡AB ([4]; DMSO, lineshape, Eyring): -79 ± 41
- ΔSAB ([4]; DMSO, lineshape, van't Hoff): -5.26 ± 0.17
